# According to patent US20140109520A1, “BEVERAGE FILLING METHOD AND APPARATUS” (DAI NIPPON PRINTING CO., LTD., priority 2008, published 2014):
# Read-outs that look alike come from different tables or passages of the source.
# What was measured:
# B. subtilis spore = test system: B. subtilis spore
# Description: Effects attained by the container sterilization method of the present invention will be compared with effects attained by the conventional sterilization method as in the following Table 2.
# (§1) In the column “No” in the above Table 2, A1, A2, A3, B1, B2 denotes bottle sample numbers, in which A1, A2 and A3 correspond to the conventional sterilization method, and B1 and B2 correspond to the third embodiment of the present invention mentioned above.
# The column “Log Reduction” represents LRV (Logarithmic Reduction Value) as to B. subtilis spore.
# [1] = test system: bacteria adhering to the inner surfaces of the preforms; conditions: for Number of bacteria adhering on inner surface of preform 10^3: 10^3 bacteria; for Number of bacteria adhering on inner surface of preform 10^4: 10^4 bacteria; for Number of bacteria adhering on inner surface of preform 10^5: 10^5 bacteria
# Description: as §1
# [2] = for Remaining hydrogen peroxide: 500 mL PET bottle, 30 μL hydrogen peroxide
# [3] = test system: B. subtilis var. niger ATCC9372
# Description: Evaluation method to the measurement was as follows.
# Sterilization Effects (Log Reduction)=Log(Number of Adhering Bacteria/Number of Survived Bacteria)
# Index Bacteria: B. subtilis var. niger ATCC9372
# [4] = bottle sample A1, conventional method, H2O2 mist 50 μL/bottle, H2O2 in air 0.0 mg/L, using amount 170 mL/min
# [5] = bottle sample A2, conventional method, H2O2 mist 100 μL/bottle, H2O2 in air 0.0 mg/L, using amount 340 mL/min
# [6] = bottle sample B1, third embodiment, H2O2 mist 50 μL/bottle, H2O2 in air 3.3 mg/L, using amount 230 mL/min
# [7] = bottle sample A2, conventional method, H2O2 mist 100 μL/bottle, H2O2 in air 0.0 mg/L
# [8] = bottle sample A3, conventional method, H2O2 mist 150 μL/bottle, H2O2 in air 0.0 mg/L
# [9] = bottle sample B1, third embodiment, H2O2 mist 50 μL/bottle, H2O2 in air 3.3 mg/L
# [10] = bottle sample B2, third embodiment, H2O2 mist 50 μL/bottle, H2O2 in air 5 mg/L
# [11] = 0.5 sec from hydrogen peroxide spray to air-rinse
# [12] = 2 sec from hydrogen peroxide spray to air-rinse
# [13] = 5 sec from hydrogen peroxide spray to air-rinse
smiles,measurement,setting,value
OO [hydrogen peroxide],Judgment Sterilization performance,B. subtilis spore; [4],X (LVR being less than 6)
same,Log reduction,B. subtilis spore; [4],<3.4
same,Judgment Sterilization performance,B. subtilis spore; [5],◯ (shows LRV being 6)
same,Log reduction,B. subtilis spore; [5],6.0
same,Log reduction,"B. subtilis spore; bottle sample A3, conventional method, H2O2 mist 150 μL/bottle, H2O2 in air 0.0 mg/L, using amount 510 mL/min",>6.0
same,Judgment Sterilization performance,B. subtilis spore; [6],◯ (shows LRV being 6)
same,Log reduction,B. subtilis spore; [6],6
same,Log reduction,"B. subtilis spore; bottle sample B2, third embodiment, H2O2 mist 50 μL/bottle, H2O2 in air 5 mg/L, using amount 280 mL/min",>6.0
same,sterilization effect LRV,"B. subtilis spore; conventional method, hydrogen peroxide of 340 mL/min. to 510 mL/min.",6
same,sterilization effect LRV,"B. subtilis spore; method of the present invention, hydrogen peroxide of 230 mL/min. to 260 mL/min.",6
same,density of the hydrogen peroxide adhering to the surface of the bottle,bottle temperature 65° C.,~80 weight %
same,density of the hydrogen peroxide adhering to the surface of the bottle,bottle temperature 80° C.,~90 weight %
same,Number of bacteria adhering on inner surface of preform 10^3,[1]; [7],◯◯◯
same,Number of bacteria adhering on inner surface of preform 10^4,[1]; [7],◯◯◯
same,Number of bacteria adhering on inner surface of preform 10^5,[1]; [7],◯◯[…]
same,Number of bacteria adhering on inner surface of preform 10^3,[1]; [8],◯◯◯
same,Number of bacteria adhering on inner surface of preform 10^4,[1]; [8],◯◯◯
same,Number of bacteria adhering on inner surface of preform 10^5,[1]; [8],◯◯◯
same,Number of bacteria adhering on inner surface of preform 10^3,[1]; [9],◯◯◯
same,Number of bacteria adhering on inner surface of preform 10^4,[1]; [9],◯◯◯
same,Number of bacteria adhering on inner surface of preform 10^5,[1]; [9],◯◯[…]
same,Number of bacteria adhering on inner surface of preform 10^3,[1]; [10],◯◯◯
same,Number of bacteria adhering on inner surface of preform 10^4,[1]; [10],◯◯◯
same,Number of bacteria adhering on inner surface of preform 10^5,[1]; [10],◯◯◯
same,Judgment (remaining hydrogen peroxide),[2]; [11],∘
same,Remaining hydrogen peroxide,[2]; [11],0.3 ppm
same,Judgment (remaining hydrogen peroxide),[2]; [12],∘
same,Remaining hydrogen peroxide,[2]; [13],0.9 ppm
same,Judgment (log reduction),[3]; [12],∘
same,Judgment (log reduction),[3]; [13],∘
